From PubChem BioAssay AID1259407 (Chemical Carcinogenesis Research Information System (CCRIS), 2018)
The source made the active and inactive calls. The rule behind the calls is not given here.

System: CCRIS mutagenicity, Ames/micronucleus/aberration tests
Experiment: CCRIS mutagenicity studies
[1] = Test System: AMES SALMONELLA TYPHIMURIUM, Strain/Indicator: TA98, Metabolic Activation: NONE, Method: STANDARD PLATE
[2] = Test System: AMES SALMONELLA TYPHIMURIUM, Strain/Indicator: TA100, Metabolic Activation: NONE, Method: STANDARD PLATE
[3] = Test System: AMES SALMONELLA TYPHIMURIUM, Strain/Indicator: TA1535, Metabolic Activation: NONE, Method: STANDARD PLATE
[4] = Test System: AMES SALMONELLA TYPHIMURIUM, Strain/Indicator: TA1537, Metabolic Activation: NONE, Method: STANDARD PLATE
[5] = Test System: AMES SALMONELLA TYPHIMURIUM, Strain/Indicator: TA98, Metabolic Activation: NONE, Method: PREINCUBATION
[6] = Test System: AMES SALMONELLA TYPHIMURIUM, Strain/Indicator: TA100, Metabolic Activation: NONE, Method: PREINCUBATION
[7] = Test System: AMES SALMONELLA TYPHIMURIUM, Strain/Indicator: TA1535, Metabolic Activation: NONE, Method: PREINCUBATION

Measured: mutagenic call

COC(=O)c1cc(OC)c2c(c1-c1c(C(=O)OC)cc(OC)c3c1OCO3)OCO2
inactive: [1] inactive; negative | Test System: AMES SALMONELLA TYPHIMURIUM, Strain/Indicator: TA98, Metabolic Activation: S-9, Method: STANDARD PLATE inactive; negative | [2] inactive; negative | Test System: AMES SALMONELLA TYPHIMURIUM, Strain/Indicator: TA100, Metabolic Activation: S-9, Method: STANDARD PLATE inactive; negative | [3] inactive; negative | Test System: AMES SALMONELLA TYPHIMURIUM, Strain/Indicator: TA1535, Metabolic Activation: S-9, Method: STANDARD PLATE inactive; negative | [4] inactive; negative | Test System: AMES SALMONELLA TYPHIMURIUM, Strain/Indicator: TA1537, Metabolic Activation: S-9, Method: STANDARD PLATE inactive; negative

CC(=O)O[C@]1(C(C)=O)CC[C@H]2[C@@H]3C4OC4(Cl)C4=CC(=O)[C@@H]5C[C@@H]5[C@]4(C)[C@H]3CC[C@@]21C (stereo not given in full)
inactive: [5] inactive; negative | [1] inactive; negative | Test System: AMES SALMONELLA TYPHIMURIUM, Strain/Indicator: TA98, Metabolic Activation: RAT, LIVER, S-9, AROCLOR 1254, Method: PREINCUBATION inactive; negative | Test System: AMES SALMONELLA TYPHIMURIUM, Strain/Indicator: TA98, Metabolic Activation: RAT, LIVER, S-9, AROCLOR 1254, Method: STANDARD PLATE inactive; negative | [6] inactive; negative | [2] inactive; negative | Test System: AMES SALMONELLA TYPHIMURIUM, Strain/Indicator: TA100, Metabolic Activation: RAT, LIVER, S-9, AROCLOR 1254, Method: PREINCUBATION inactive; negative | Test System: AMES SALMONELLA TYPHIMURIUM, Strain/Indicator: TA100, Metabolic Activation: RAT, LIVER, S-9, AROCLOR 1254, Method: STANDARD PLATE inactive; negative | [7] inactive; negative | [3] inactive; negative | Test System: AMES SALMONELLA TYPHIMURIUM, Strain/Indicator: TA1535, Metabolic Activation: RAT, LIVER, S-9, AROCLOR 1254, Method: PREINCUBATION inactive; negative | Test System: AMES SALMONELLA TYPHIMURIUM, Strain/Indicator: TA1535, Metabolic Activation: RAT, LIVER, S-9, AROCLOR 1254, Method: STANDARD PLATE inactive; negative | Test System: AMES SALMONELLA TYPHIMURIUM, Strain/Indicator: TA1537, Metabolic Activation: NONE, Method: PREINCUBATION inactive; negative | [4] inactive; negative | Test System: AMES SALMONELLA TYPHIMURIUM, Strain/Indicator: TA1537, Metabolic Activation: RAT, LIVER, S-9, AROCLOR 1254, Method: PREINCUBATION inactive; negative | Test System: AMES SALMONELLA TYPHIMURIUM, Strain/Indicator: TA1537, Metabolic Activation: RAT, LIVER, S-9, AROCLOR 1254, Method: STANDARD PLATE inactive; negative | Test System: AMES SALMONELLA TYPHIMURIUM, Strain/Indicator: TA1538, Metabolic Activation: NONE, Method: PREINCUBATION inactive; negative | Test System: AMES SALMONELLA TYPHIMURIUM, Strain/Indicator: TA1538, Metabolic Activation: NONE, Method: STANDARD PLATE inactive; negative | Test System: AMES SALMONELLA TYPHIMURIUM, Strain/Indicator: TA1538, Metabolic Activation: RAT, LIVER, S-9, AROCLOR 1254, Method: PREINCUBATION inactive; negative | Test System: AMES SALMONELLA TYPHIMURIUM, Strain/Indicator: TA1538, Metabolic Activation: RAT, LIVER, S-9, AROCLOR 1254, Method: STANDARD PLATE inactive; negative

CCSC(=O)N(CC)C1CCCCC1
inactive: End Point: In vitro chromosomal aberrations, Test System: Human lymphocytes, Metabolic Activation: None inactive; negative | End Point: In vitro chromosomal aberrations, Test System: Human lymphocytes, Metabolic Activation: S-9 (No additional details provided in source) inactive; negative | End Point: In vivo micronucleus, Test System: Bone marrow, Species: Mouse, Strain/Sex: CD/Female, Route: Oral inactive; negative | End Point: In vivo micronucleus, Test System: Bone marrow, Species: Mouse, Strain/Sex: CD/Male, Route: Oral inactive; negative

Nc1ccc([As](=O)(O)O)cc1
inactive: Test System: AMES SALMONELLA TYPHIMURIUM, Strain/Indicator: TA97, Metabolic Activation: HAMSTER, LIVER, S-9, AROCLOR 1254 (10 OR 30%), Method: PREINCUBATION inactive; negative | Test System: AMES SALMONELLA TYPHIMURIUM, Strain/Indicator: TA97, Metabolic Activation: NONE, Method: PREINCUBATION inactive; negative | Test System: AMES SALMONELLA TYPHIMURIUM, Strain/Indicator: TA97, Metabolic Activation: RAT, LIVER, S-9, AROCLOR 1254 (10 OR 30%), Method: PREINCUBATION inactive; negative | Test System: AMES SALMONELLA TYPHIMURIUM, Strain/Indicator: TA98, Metabolic Activation: HAMSTER, LIVER, S-9, AROCLOR 1254 (10 OR 30%), Method: PREINCUBATION inactive; negative | [5] inactive; negative | Test System: AMES SALMONELLA TYPHIMURIUM, Strain/Indicator: TA98, Metabolic Activation: RAT, LIVER, S-9, AROCLOR 1254 (10 OR 30%), Method: PREINCUBATION inactive; negative | Test System: AMES SALMONELLA TYPHIMURIUM, Strain/Indicator: TA100, Metabolic Activation: HAMSTER, LIVER, S-9, AROCLOR 1254 (10 OR 30%), Method: PREINCUBATION inactive; negative | [6] inactive; negative | Test System: AMES SALMONELLA TYPHIMURIUM, Strain/Indicator: TA100, Metabolic Activation: RAT, LIVER, S-9, AROCLOR 1254 (10 OR 30%), Method: PREINCUBATION inactive; negative | Test System: AMES SALMONELLA TYPHIMURIUM, Strain/Indicator: TA1535, Metabolic Activation: HAMSTER, LIVER, S-9, AROCLOR 1254 (10 OR 30%), Method: PREINCUBATION inactive; negative | [7] inactive; negative | Test System: AMES SALMONELLA TYPHIMURIUM, Strain/Indicator: TA1535, Metabolic Activation: RAT, LIVER, S-9, AROCLOR 1254 (10 OR 30%), Method: PREINCUBATION inactive; negative

COc1c(O)c(OC)c(Cl)c(Cl)c1Cl
inactive: Test System: CHINESE HAMSTER V-79, Strain/Indicator: V-79/6-THIOGUANINE, Metabolic Activation: NONE, Method: STANDARD PLATE inactive; negative
